Assay results reported in ChEMBL document CHEMBL1133425, “Synthesis and dopaminergic activity of heterocyclic analogues of 5,6-dihydroxy-2-aminotetralins” (2000).

Key:
Oryctolagus cuniculus [1] = species on record: Oryctolagus cuniculus; assay: D1-like activity was evaluated as pD2 on a superfused rabbit splenic artery; assay type: functional
Oryctolagus cuniculus [2] = species on record: Oryctolagus cuniculus; assay: D2-like activity was evaluated as pD2 on a superfused rabbit ear artery; assay type: functional

Row | Structure (SMILES) | pD2 (Oryctolagus cuniculus [1]) | pD2 (Oryctolagus cuniculus [2])
1 | CCCN(CCC)C1CCc2c(ccc(O)c2O)C1 (centres undefined) | 6.5 | 9.8
2 | CCCN(CCCCCCNCCc1ccc(S(C)(=O)=O)cc1)[C@H]1CCc2c(ccc(O)c2O)C1 | 8.6 | 10.1
3 | CCCN(CCCCCCNCCc1ccc(S(C)(=O)=O)cc1)C1CCc2nc(N)sc2C1 (centres undefined) | 6.3 | 8.4
4 | CS(=O)(=O)c1ccc(CCNCCCCCCNCCc2cccnc2)cc1 | <5 | 5.5
5 | CCCN(CCCCCCNCCc1ccc(S(C)(=O)=O)cc1)C1CCc2ncccc2C1 (centres undefined) | <5 | 8.4
6 | CS(=O)(=O)c1ccc(CCNCCCCCCNC2CCc3[nH]ccc3C2)cc1 (centres undefined) | <5 | <6
7 | CCCN(CCCCCCNCCc1ccc(S(C)(=O)=O)cc1)C1CCc2[nH]ccc2C1 (centres undefined) | <5 | –
8 | CCCN(CCCCCCN(CCC)C1CCc2nc(O)ccc2C1)CCc1ccc(S(C)(=O)=O)cc1 (centres undefined) | <5 | –
9 | CS(=O)(=O)c1ccc(CCNCCCCCCNCCc2cc[nH]c2)cc1 | <5 | –
10 | CCCN(CCCCCCN(CCC)CCc1cccnc1)CCc1ccc(S(C)(=O)=O)cc1 | 5.5 | <6
11 | CS(=O)(=O)c1ccc(CCNCCCCCCNC2CCc3ncccc3C2)cc1 (centres undefined) | <5 | 6.3
